Laboratory results taken from patent US20080089860A1, “Therapeutic compositions and methods useful in treating cancer” (priority 2006, published 2008).
Several values for one entry are separate records, joined by “and”; a condition that tells them apart may be missing. Identical values can stand only once.

Legend:
[1] = system: HL-60 cells; assay: HL-60 differentiation (NBT reduction); type: cell-based, human; details: day 6
Protocol: (§1) Differentiation of AML cell lines was assessed by their ability to produce superoxide as measured by reduction of NBT to formazan and by analysis of expression of CD11b surface marker by flow cytometry. For NBT reduction, each cell suspension was mixed with an equal volume of solution containing 1 mg/ml of NBT (Sigma) and 2.5 µg/ml of TPA for 30 minutes at 37° C. After incubation, cells containing the purple formazan deposits and cells devoid of NBT-reducing activity (white cells) in each sample were determined by counting 200 cells under microscope. Data is expressed as a percentage based on the following ratio: purple cells/purple+white cells. For analysis of cell surface antigens, cells were exposed to phycoerythrin (PE)-conjugated murine anti-human CD11b (DAKO Corp., Carpinteria, Calif.). Analysis of fluorescence was performed on a FACScan flow cytometer (Beckton Dickinson, Mountain View, Calif.).

[2] = system: U937 cells; assay: U937 differentiation (NBT reduction); type: cell-based, human; details: day 6
Protocol: as §1

[3] = system: NB4 cells; assay: NB4 cell cycle analysis and Annexin V/propidium iodide assay; type: cell-based, human; details: 3 days; sodium stibogluconate 250 μg/ml, ATRA 1 μM
Protocol: […] Briefly, the cells were fixed in cold ethanol and incubated for 30 minutes at 4° C. in the dark with a solution of […], 1 mg/ml RNase and 0.1% NP-40. Analysis was performed immediately after staining using the CELLFIT program (Becton Dickinson, Mountain View, Calif.).
] Annexin V staining of exposed membrane phospholipid phosphatidylserine (PS) was done using the Annexin V assay kit (Pharmingen, San Diego, Calif.). Briefly, NB4 cells were cultured in the 10% FCS RPMI 1640 medium in the absence or presence of sodium stibogluconate (250 µg/ml) or ATRA (1 µM) for 3 days. Cells were then washed in PBS twice and stained in binding buffer (10 mM Hepes, pH 7.4; 140 mM NaCl; 2.5 mM CaCl2) containing Annexin V-FITC and propidium iodide for 15 min. The reaction was stopped by adding 10 volumes of binding buffer and analyzed by FACS (Becton Dickinson Facsvantage).

[4] = system: acute promyelocytic leukemia; details: in vivo; cited from earlier work
[5] = target: T1, SHP-1 (Mus musculus, UniProt P29351); assay: In vitro PTPase assay, GST/SHP-1; type: biochemical; details: 1-1,000 μg/ml
T1 construct: made in house
Protocol: In vitro PTPase activities were measured using the commercial protein tyrosine phosphatase assay kit (Upstate Biotechnology, Inc. (“UBI”)) following established procedure known to one of skill in the art. […] Briefly, 0.01 µg of GST/PTPase fusion proteins was incubated in 50 µl of Tris buffer (10 mM Tris, pH 7.4) containing different concentrations of inhibitors or chemicals (0-1,000 µg/ml) at 22° […] 100 µl of Malachite Green solution was added and incubated for 5 minutes, and the absorbance at 660 nm was measured after 5 minutes.
To assess the reversibility of inhibition of SHP-1 by PTPase inhibitors, GST/SHP-1 fusion protein bound on glutathione beads were pre-incubated in cold Tris buffer or Tris buffer containing the PTPase inhibitors at 4° C. for 30 minutes. The beads were then either subjected to in vitro PTPase assays or washed 3 times in Tris buffer then subjected to in vitro PTPase assays.
Briefly, individual PTPases (0.1 µg/reaction) in 50 µL of PTPase buffer (50 mM Tris, pH 7.4) were incubated at 22° C. for 10 minutes or as indicated in the absence or presence of inhibitory compounds. Substrates (0.2 mM phosphotyrosine peptide) were then added and allowed to react at 22° C. for 18 hrs. PTPase activity of individual reactions was measured by adding 100 µL of malachite green solution (UBI) and then quantifying the amounts of free phosphate cleaved by the PTPase from the peptide substrate by spectrometry (OD660 nm). […] Relative PTPase activities were calculated based on the formula: (PTPase activity in the presence of an inhibitory compound/PTPase activity in the absence of the compound)× 100%. To assess the reversibility of PTPase inhibition, GST fusion proteins of the PTPases bound on glutathione beads (Pharmacia) were pre-incubated with cold Tris buffer (50 mM Tris, pH 7.0) or Tris buffer containing the inhibitor at 4° C. for 30 minutes. The beads were then washed three times in cold Tris buffer or not washed prior to subjecting to in vitro PTPase assays.

[6] = target: T2, PTP1B (Homo sapiens, UniProt P18031); assay: In vitro PTPase assay, GST/PTP1B; type: biochemical; details: 1-1,000 μg/ml
T2 construct: purchased Upstate Biotechnology Inc. (Lake Placid, N.Y.)
Protocol: In vitro PTPase activities were measured using the commercial protein tyrosine phosphatase assay kit (Upstate Biotechnology, Inc. (“UBI”)) following established procedure known to one of skill in the art. This assay measures the in vitro dephosphorylation of a synthetic phosphotyrosine peptide of the sequence Arg-Arg-Leu-Ile-Glu-Asp-Ala-Gle-T- -yr-Ala-Ala-Arg-Gly, wherein the tyrosine is phosphorylated (SEQ ID NO: 3). Briefly, 0.01 µg of GST/PTPase fusion proteins was incubated in 50 µl of Tris buffer (10 mM Tris, pH 7.4) containing different concentrations of inhibitors or chemicals (0-1,000 µg/ml) at 22° C. for 10 minutes, followed by addition of 0.2 mM of the phosphotyrosine peptide and incubation at 22° C. for 18 hours. 100 µl of Malachite Green solution was added and incubated for 5 minutes, and the absorbance at 660 nm was measured after 5 minutes.
In vitro PTPase assays were used to determine the effects of levamisole (Sigma), pentamidine (American Pharmaceutical Partners, Inc.), and ketoconazole (Sigma) on recombinant PTPases, following established procedures (Pathak et al., J. Imumol. 167, 3391 (2001); Pathak et al., Leukemia 16, 2285 (2002), Yi et al., J. Immunol. 169, 5978 (2002)) using a synthetic phosphotyrosine peptide or DiFMUP as the substrate as detailed above in section I.A.2.

[7] = system: Jak2/Stat5 and cellular protein tyrosine phosphorylation in Baf3 cells; assay: Cellular protein phosphorylation and Western blotting in Baf3 cells; type: cell-based, murine; details: Baf3 cells
Protocol: For induction of cellular protein phosphorylation by sodium stibogluconate or pervanadate, Baf3 cells were incubated in 0.1% FCS-RPMI 1640 medium at 37° C. for 16 hours. The cells were then washed twice in RPMI 1640 medium and incubated with sodium stibogluconate or pervanandate (0.1 mM) for various times prior to termination by lysing cells in cold lysis buffer (50 mM Tris, pH 7.4; 150 mM NaCl; 0.2 mM Na3VO4; 20 mm NaF; 1% Nonidet P-40; 2 mM PMSF; 20 µg/ml of Aprotinin and 1 mM of sodium molybdic acid). To determine the effect of sodium stibogluconate or potassium antimonyl tartrate on IL-3-induced Jak/Stat phosphorylation, Baf3 cells were deprived of the growth factor for 16 hours in 0.1% FCS RPMI 1640 medium and then incubated with or without sodium stibogluconate or potassium antimonyl tartrate for 10 minutes. IL-3 was next added to the cell suspension and incubated for various times. The Cells were then harvested and lysed in cold lysis buffer at 4° C. for 45 minutes. Total cell lysates (TCL) were separated in SDS-PAGE gels, blotted onto nitrocellulose membrane (Schleicher & Schuell), probed with specific antibodies and detected using an enhanced chemiluminescence kit (ECL, Amersham, Arlington Heights, Ill.).

[8] = system: Baf3 cells; assay: Baf3 cell proliferation assay; type: cell-based, murine
Protocol: The murine hematopoietic cell line Baf3 was maintained in RPMI 1640 medium supplemented with 10% fetal calf serum (FCS) and murine IL-3 (20 units/ml) as described previously in Damen et al., J. Biol. Chem. 270, 23402 (1995). Human myeloid cell line TF-1 was maintained in RPMI 1640 supplemented with 10% FCS and 40 ng/ml of recombinant human GM-CSF as described previously in Thomassen et al., Clin. Immunol. 95, 85 (2000). For cell proliferation assays, cells were washed in 10% FCS medium twice, resuspended in 10% FCS medium, incubated at 37° C. for 16 hours, and then cultured at 37° C. in 10% FCS medium containing various amounts of cytokines, sodium stibogluconate, or potassium antimonyl tartrate for 3-6 days as indicated. The cell numbers in proliferation assays were determined by an MTT assay or by microscopic cell counting as indicated.

[9] = system: NB4 cells; assay: NB4 differentiation (NBT reduction, CD11b); type: cell-based, human; details: GM-CSF alone
Protocol: as §1

[10] = sodium stibogluconate 400 μg/ml, GM-CSF 25 ng/ml

T1 sequence (P29351 whole entry): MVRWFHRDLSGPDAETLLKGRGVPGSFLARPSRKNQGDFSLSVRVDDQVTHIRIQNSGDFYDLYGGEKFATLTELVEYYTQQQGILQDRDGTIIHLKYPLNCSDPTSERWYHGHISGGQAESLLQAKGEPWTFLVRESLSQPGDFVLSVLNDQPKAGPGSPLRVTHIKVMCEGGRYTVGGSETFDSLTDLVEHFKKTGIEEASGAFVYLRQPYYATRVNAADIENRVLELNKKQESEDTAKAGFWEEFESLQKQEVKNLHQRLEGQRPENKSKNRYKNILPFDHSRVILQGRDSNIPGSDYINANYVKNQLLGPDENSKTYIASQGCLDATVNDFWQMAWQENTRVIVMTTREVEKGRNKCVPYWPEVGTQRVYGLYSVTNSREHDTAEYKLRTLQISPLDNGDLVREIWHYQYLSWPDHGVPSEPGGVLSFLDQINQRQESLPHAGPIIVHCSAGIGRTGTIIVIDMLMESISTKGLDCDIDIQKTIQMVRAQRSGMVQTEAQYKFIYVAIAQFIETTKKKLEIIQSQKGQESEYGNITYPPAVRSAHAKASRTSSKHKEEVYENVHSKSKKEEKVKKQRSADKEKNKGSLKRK
T2 sequence (P18031 whole entry, species assumed): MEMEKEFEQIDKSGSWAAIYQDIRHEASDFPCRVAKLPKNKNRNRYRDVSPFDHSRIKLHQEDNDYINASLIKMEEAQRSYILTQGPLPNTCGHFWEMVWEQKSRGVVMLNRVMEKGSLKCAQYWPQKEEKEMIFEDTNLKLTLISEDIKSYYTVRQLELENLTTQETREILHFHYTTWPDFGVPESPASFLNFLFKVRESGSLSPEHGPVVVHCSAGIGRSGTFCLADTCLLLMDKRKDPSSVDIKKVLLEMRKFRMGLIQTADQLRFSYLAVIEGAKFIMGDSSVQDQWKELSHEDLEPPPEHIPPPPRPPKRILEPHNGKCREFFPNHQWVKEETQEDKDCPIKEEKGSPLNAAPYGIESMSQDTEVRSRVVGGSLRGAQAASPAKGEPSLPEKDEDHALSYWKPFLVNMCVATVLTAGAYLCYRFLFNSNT

For CC1=C(/C=C/C(C)=C/C=C/C(C)=C/C(=O)O)C(C)(C)CCC1 [ATRA, All-trans-retinoic acid], the “HL-60 differentiation (NBT-positive cells)” value [1, 10] was 90%, the “U937 differentiation (NBT-positive cells)” value [2, 10] was 72% and 73% and the “cell cycle distribution of NB4 cells” value [3] was “arrested at G1 phase”. The “long term APL-free survival” value [4] was “exceeding 75%”.
With O.O.O.O=C([O-])[C@H]([O-])[C@@H]([O-])C(=O)[O-].O=C([O-])[C@H]([O-])[C@@H]([O-])C(=O)[O-].[K+].[K+].[Sb+3].[Sb+3] [potassium antimonyl tartrate] the “inhibition of SHP-1” value [5] was “no detectable inhibition”, the “inhibition of PTP1B” value [6] was “no detectable inhibition” and the “IL-3-induced Stat5 phosphorylation” value [7] was “failed to enhance”. The “toxicity against Baf3 cells” value [8] was “marked toxicity” and the “IL-3-induced proliferation of Baf3 cells” value ([8]; IL-3 10 units/ml, three days) was “failed to enhance”.
With GM-CSF: recombinant human GM-CSF the “effect on NB-4 cell differentiation” value [9] was “no detectable effect”, the “maximal increase of NBT-positive cells” value ([1]; GM-CSF alone) was 8-10% and the “maximal increase of NBT-positive cells” value ([2]; GM-CSF alone) was 8-10%.
